From patent US20120009601A1, “METHODS AND COMPOSITIONS FOR REPROGRAMMING CELLS” (THE GENERAL HOSPITAL CORPORATION, priority 2010, published 2012)
Entries after “also recorded” stand apart in the source; their conditions may differ.

What was measured:
[1] = tested on: induced hepatocyte-like cells (iHep); assay: Generation of human iPS cells (iPS-hHepC) from induced hepatocyte-like cells (iHep); format: cell-based; conditions: 96 hr
Experimental: Human induced pluripotent stem (iPS) cells were generated from the hepatocyte-like cells that had been generated from human hepatoma cells, using 5′-aza-2′-deoxycytidine (5-AZAC) plus trichostatin A (TSA) without Oct3/4 and c-Myc. The iHep were maintained using a medium for Primate ES cell culture supplemented with 40 ng/ml of hepatocytes growth factor and 20 ng/ml of epidermal growth factor. Furthermore, 500 nM 5′-aza-2′ deoxycytidine (5-AZAC), 150 nM trichostatin A (TSA), 1 μM EMD 616452 as an inhibitor for Tgf beta receptor I kinase/activin-like kinase 5 (Alk5) and 0.5 mM valproic acid (VPA) were administered in the Primate ES cell medium for 96 hr. After 14 days, human iPS cells (iPS-hHepC) were established. Oct3/4 was reactivated by 5-AZAC+TSA. Furthermore, Sox2 and Klf4 were reactivated by EMD 616452 and VPA, respectively.

[2] = tested on: human iPS cells that carry mutant p53; assay: Evaluation of cancerous risk: microvessel density (MVD) within teratomas from human iPS cell lines in mice; format: in vivo; conditions: cells treated with PRIMA-1 20 μM; teratomas in immunodeficient mice, anti-CD31 immunofluorescence
Description: The various human iPS cell lines (No. 1-No. 4) were inoculated intramuscularly into immunodeficient mice (Rag2^−/− Il2rg^−/−). Then, microvessel density (MVD) was compared within teratomas in mice among each group. Furthermore, for angiogenesis in teratomas from each human iPS cell lines, microvessel density (MVD) per high-powered field (h.p.f.) of teratomas was quantified by human-specific anti-CD31 immunofluorescence. n=3-6; All values were mean±s.e.m.
By using microvessel density analysis (MVD) within SCID mice that were transplanted with ChiPS cell lines, risk evaluation of malignant transformations were performed for human iPS cell lines established by various methods (3) (4) (5) (6), including the results described herein (FIG. 9). […] Then, p53-175N, p53-175S and p53-175D were identified as p53-mutational spots in human iPS cells which carry mutant p53, with codon 175 in human p53 being known as one mutational spot in human cancer (7).

[3] = tested on: human iPS cells which carry mutant p53; assay: PRIMA-1 treatment of human iPS cells carrying mutant p53 (p21 expression, p53-dependent apoptosis); format: cell-based; conditions: PRIMA-1 20 μM
Experimental: Next, human iPS cells that carry mutant p53 were selected and treated with PRIMA-1 (20 μM).

[4] = tested on: human iPS cells having wild-types p53; assay: PRIMA-1 treatment of human iPS cells carrying wild-type p53 (p53-dependent apoptosis); format: cell-based; conditions: PRIMA-1 20 μM; human iPS cells with wild-type p53

Cc1cccc(-c2[nH]ncc2-c2ccc3ncccc3n2)n1 [EMD 616452]
Sox2 reactivation ([1]; 1 μM EMD 616452, Primate ES cell medium): reactivated

O=C1C2CCN(CC2)C1(CO)CO [PRIMA-1, 2,2-Bis(hydroxymethyl)-1-azabicyclo[2.2.2]octan-3-one]
MVD in human iPS cells carrying mutant p53 [2]: equivalent to that of human iPS cell lines established by small molecules | induction of p53-dependent apoptosis ([3]; human iPS cells that have mutant p53): induction of p53-dependent apoptosis | expression of p53 target genes p21 ([3]; human iPS cells which carry mutant p53): induced | induction of p53-dependent apoptosis [4]: not observed; also recorded: not found

CCCC(CCC)C(=O)O [VPA, valproic acid]
Klf4 reactivation ([1]; 0.5 mM VPA, Primate ES cell medium): reactivated
